This note sets out measurements from patent US11319299B2, “Substituted carboxamides as inhibitors of WDR5 protein-protein binding” (PROPELLON THERAPEUTICS INC., priority 2016, dated 2022).

The target in this assay is WDR5 (Homo sapiens (Human), UniProt P61964). The experiment in a line: Surface Plasmon Resonance (SPR) assay, KD and residence time. In kind it is binding. The note with it: surface plasmon resonance (SPR); read-out: WDR5 binding affinity (KD). For orientation: SPR reads the build-up and loss of mass on a sensor chip optically.
Take `C[C@@H]1CN(c2cc(F)c(-c3ncc(C(=O)NC4CCCCC4)s3)cc2NC(=O)c2c[nH]c(=O)cc2C(F)(F)F)C[C@H](C)N1C` [Example 498, N-cyclohexyl-2-[2-fluoro-5-[[6-oxo-4-(trifluoromethyl)-1H-pyridine-3-carbonyl]amino]-4-[(3R,5S)-3,4,5-trimethylpiperazin-1-yl]phenyl]-1,3-thiazole-5-carboxamide]: the Kd (commonly the concentration at which binding is half-saturated) came out at 1.47 nM.
Regarding `C[C@@H]1CN(c2cc(F)c(-c3ncc(C(=O)N(C)C4CCCCC4)s3)cc2NC(=O)c2c[nH]c(=O)cc2C(F)(F)F)C[C@H](C)N1C` [Example 499, N-cyclohexyl-2-[2-fluoro-5-[[6-oxo-4-(trifluoromethyl)-1H-pyridine-3-carbonyl]amino]-4-[(3R,5S)-3,4,5-trimethylpiperazin-1-yl]phenyl]-N-methyl-1,3-thiazole-5-carboxamide], the Kd is 3.4 nM.
Next, `C[C@@H]1CN(c2cc(F)c(-c3ncc(C(=O)N4CCOCC4)s3)cc2NC(=O)c2c[nH]c(=O)cc2C(F)(F)F)C[C@H](C)N1C` [Example 500, N-[4-fluoro-5-[5-(morpholine-4-carbonyl)-1,3-thiazol-2-yl]-2-[(3R,5S)-3,4,5-trimethylpiperazin-1-yl]phenyl]-6-oxo-4-(trifluoromethyl)-1H-pyridine-3-carboxamide]: 1.85 nM; `C[C@@H]1CN(c2cc(F)c(-c3ncc(C(=O)N4CCN(C)CC4)s3)cc2NC(=O)c2c[nH]c(=O)cc2C(F)(F)F)C[C@H](C)N1C` [Example 501, N-[4-fluoro-5-[5-(4-methylpiperazine-1-carbonyl)-1,3-thiazol-2-yl]-2-[(3R,5S)-3,4,5-trimethylpiperazin-1-yl]phenyl]-6-oxo-4-(trifluoromethyl)-1H-pyridine-3-carboxamide]: 3.44 nM; `C[C@@H]1CN(c2cc(F)c(-c3cnc(N4CCOCC4)nc3)cc2NC(=O)c2cc(N)c(F)cc2C(F)(F)F)C[C@H](C)N1C` [Example 502, 5-amino-4-fluoro-N-[4-fluoro-5-(2-morpholin-4-ylpyrimidin-5-yl)-2-[(3R,5S)-3,4,5-trimethylpiperazin-1-yl]phenyl]-2-(trifluoromethyl)benzamide]: 1.15 nM.
To `C[C@@H]1CN(c2cc(F)c(C3=CCN(c4ccc(C5CC5)nn4)CC3)cc2NC(=O)c2c[nH]c(=O)cc2C(F)(F)F)C[C@H](C)N1C` [Example 503, N-[5-[1-(6-cyclopropylpyridazin-3-yl)-3,6-dihydro-2H-pyridin-4-yl]-4-fluoro-2-[(3R,5S)-3,4,5-trimethylpiperazin-1-yl]phenyl]-6-oxo-4-(trifluoromethyl)-1H-pyridine-3-carboxamide] belongs 2.44 nM.
Next, `CCc1ccc(N2CC=C(c3cc(NC(=O)c4c[nH]c(=O)cc4C(F)(F)F)c(N4C[C@@H](C)N(C)[C@@H](C)C4)cc3F)CC2)nn1` [Example 504, N-[5-[1-(6-ethylpyridazin-3-yl)-3,6-dihydro-2H-pyridin-4-yl]-4-fluoro-2-[(3R,5S)-3,4,5-trimethylpiperazin-1-yl]phenyl]-6-oxo-4-(trifluoromethyl)-1H-pyridine-3-carboxamide]: 2.44 nM; `COc1cc(C(F)(F)F)c(C(=O)Nc2cc(-c3cnc(N4CCOCC4)nc3)c(F)cc2N2C[C@@H](C)N(C)[C@@H](C)C2)cn1` [Example 506, N-[4-fluoro-5-(2-morpholin-4-ylpyrimidin-5-yl)-2-[(3R,5S)-3,4,5-trimethylpiperazin-1-yl]phenyl]-6-methoxy-4-(trifluoromethyl)pyridine-3-carboxamide]: 354 nM.
On to `C[C@@H]1CN(c2ccc(-c3cc(NC(=O)c4c[nH]c(=O)cc4C(F)F)c(N4CCN(C)[C@@H](C)C4)cc3F)cn2)CCO1` [Example 509, 4-(difluoromethyl)-N-[4-fluoro-2-[(3S)-3,4-dimethylpiperazin-1-yl]-5-[6-[(2R)-2-methylmorpholin-4-yl]pyridin-3-yl]phenyl]-6-oxo-1H-pyridine-3-carboxamide], for which the dissociation constant Kd worked out at 0.947 nM.
On to `C[C@@H]1CN(c2ccc(-c3cc(NC(=O)c4c[nH]c(=O)cc4C(F)F)c(N4C[C@@H](C)N(C)[C@@H](C)C4)cc3F)cn2)C[C@H](C)O1` [Example 511, 4-(difluoromethyl)-N-[4-fluoro-5-[6-[(2R,6S)-2,6-dimethylmorpholin-4-yl]pyridin-3-yl]-2-[(3R,5S)-3,4,5-trimethylpiperazin-1-yl]phenyl]-6-oxo-1H-pyridine-3-carboxamide], for which the Kd came to 0.779 nM.
To `C[C@@H]1CN(c2ccc(-c3cc(NC(=O)c4c[nH]c(=O)cc4C(F)F)c(N4CCN(C)[C@@H](C)C4)cc3F)cn2)C[C@H](C)O1` [Example 514, 4-(difluoromethyl)-N-[4-fluoro-5-[6-[(2R,6S)-2,6-dimethylmorpholin-4-yl]pyridin-3-yl]-2-[(3S)-3,4-dimethylpiperazin-1-yl]phenyl]-6-oxo-1H-pyridine-3-carboxamide] belongs 0.959 nM.
On to `C[C@@H]1CN(c2ccc(-c3cc(NC(=O)c4cn(C)c(=O)cc4C(F)F)c(N4CCN(C)[C@@H](C)C4)cc3F)cn2)C[C@H](C)O1` [Example 515, 4-(difluoromethyl)-N-[4-fluoro-5-[6-[(2R,6S)-2,6-dimethylmorpholin-4-yl]pyridin-3-yl]-2-[(3S)-3,4-dimethylpiperazin-1-yl]phenyl]-1-methyl-6-oxopyridine-3-carboxamide], for which the dissociation constant (Kd) turned out to be 4.09 nM.
As for `C[C@@H]1CN(c2ccc(-c3cc(NC(=O)c4cn(C)c(=O)cc4C(F)F)c(N4CCN(C)[C@@H](C)C4)cc3F)cn2)CCO1` [Example 516, 4-(difluoromethyl)-N-[4-fluoro-2-[(3S)-3,4-dimethylpiperazin-1-yl]-5-[6-[(2R)-2-methylmorpholin-4-yl]pyridin-3-yl]phenyl]-1-methyl-6-oxopyridine-3-carboxamide], the Kd came out at 4 nM.
Next, `C[C@@H]1CN(c2cc(F)c(-c3csc(C(=O)NCC4CC4)n3)cc2NC(=O)c2cn(C)c(=O)cc2C(F)(F)F)C[C@H](C)N1C` [Example 523, N-(cyclopropylmethyl)-4-[2-fluoro-5-[[1-methyl-6-oxo-4-(trifluoromethyl)pyridine-3-carbonyl]amino]-4-[(3R,5S)-3,4,5-trimethylpiperazin-1-yl]phenyl]-1,3-thiazole-2-carboxamide]: 4.59 nM; `C[C@@H]1CN(c2cc(F)c(-c3csc(C(=O)N(C)CC4CC4)n3)cc2NC(=O)c2cn(C)c(=O)cc2C(F)(F)F)C[C@H](C)N1C` [Example 524, N-(cyclopropylmethyl)-4-[2-fluoro-5-[[-methyl-6-oxo-4-(trifluoromethyl)pyridine-3-carbonyl]amino]-4-[(3R,5S)-3,4,5-trimethylpiperazin-1-yl]phenyl]-N-methyl-1,3-thiazole-2-carboxamide]: 5.03 nM.
To `C[C@@H]1CN(c2cc(F)c(-c3csc(C(=O)NC4CCCCC4)n3)cc2NC(=O)c2cn(C)c(=O)cc2C(F)(F)F)C[C@H](C)N1C` [Example 525, N-cyclohexyl-4-[2-fluoro-5-[[1-methyl-6-oxo-4-(trifluoromethyl)pyridine-3-carbonyl]amino]-4-[(3R,5S)-3,4,5-trimethylpiperazin-1-yl]phenyl]-1,3-thiazole-2-carboxamide] belongs 5.42 nM.
